Patent US20230233425A1, “USE OF VOLATILE COMPOSITIONS TO LIMIT OR ELIMINATE THE PERCEPTION OF MALODOR” (Firmenich SA, priority 2017, published 2023)
Read-outs that look alike come from different tables or passages of the source.

Key:
[1] = system: OR11A1, or the OR2M3 olfactory receptor; assay: Geonol olfactory receptor antagonist cell-based screening, inhibitory dose-response vs geonol EC80; set-up: species or system human; details: geonol at EC80
[2] = system: OR2W1 or the OR1A1 olfactory receptor; assay: 1-octen-3-ol olfactory receptor antagonist cell-based dose-response vs 1-octen-3-ol EC80; details: for IC50: 1-octen-3-ol at EC80; for % Inhibition: maximum inhibition normalized to baseline agonist activity
From the text: Each cell line was screened with a volatile compound library for their inhibitory properties and potential 1-octen-3-ol smell inhibition.
Single concentration monitoring of the 1-octen-3-ol induced cell activity in the presence or absence of a test compound allowed for the identification of compounds with a putative suppression or inhibitory effect.

[3] = system: 1-octen-3-ol mushroom/earthy/fungal odor perception; assay: Human sensory performance of test compounds with and without 1-octen-3-ol; type: in vivo; details: for % Mushroom/Earthy/Fungal Odor: Test Compound Only
[4] = system: geonol earthy/moss odor perception; assay: Human sensory performance of test compounds with and without geonol; type: in vivo; details: for % Earthy/Moss Odor: Test Compound Only
From the text: Sensory Evaluation: Five 16 oz glass jars containing either REF (geonol only), geonol only control, antagonist only, mixture of geonol and isointense antagonist, or mixture of geonol and low intensity antagonist were presented to the panelists (last four samples were randomized across panelists). The panelists were asked to familiarize themselves with the earthy/moss odor quality from the REF jar first, then rate the pleasantness, earthy/moss odor intensity and overall odor intensity of the next four samples on a 0-10 linear scale. The inter-stimulus interval between the samples was two minutes to avoid adaptation. […]
The results are shown in Tables 16 and 17, and FIGS. 3 to 5.

[5] = system: geonol receptors Olfr339, Olfr1487, Olfr1A1, OR11A1, Olfr96; assay: Antagonists of geonol receptors (Example 11); type: cell-based, mouse and human; set-up: Inhibition(%): concentration or dose not given beside the values; details: Table 18
Olfr740 = Olfr740 (Mus musculus, UniProt E9PV79); assay: Indole antagonist dose-response, cAMP HTRF in HEK293T, vs indole EC80; type: cell-based; details: for Emax: HEK-293T, read-out: Olfr740 % Inhibition
Sequence of Olfr740 (E9PV79 entry or part of it): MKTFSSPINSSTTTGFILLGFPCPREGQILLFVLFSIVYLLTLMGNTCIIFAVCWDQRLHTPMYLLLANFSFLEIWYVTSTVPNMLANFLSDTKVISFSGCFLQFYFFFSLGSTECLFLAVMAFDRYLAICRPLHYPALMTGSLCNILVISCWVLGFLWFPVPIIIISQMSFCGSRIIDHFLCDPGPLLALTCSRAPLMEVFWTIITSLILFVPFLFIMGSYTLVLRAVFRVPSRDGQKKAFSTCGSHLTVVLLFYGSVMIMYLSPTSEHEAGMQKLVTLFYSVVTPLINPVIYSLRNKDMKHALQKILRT
Protocol: (§1) Using a cell-based assay, mouse receptor Olfr738, Olfr739, Olfr740, Olfr741, 0fr742, Olfr743, Olfr744, Olfr746, Olfr748 and Olfr749 were tested in an HEK293T cell line wherein the endogenous RTP1 gene has been activated and the odorant receptor chaperone was expressed (described in WO2016201153A1). The receptor genes were tagged with a Flag-Rho tag combination. Receptor genes were co-transfected with the canonical olfactory human G-protein alpha subunit Golf gene. Co-expression of the human Golf activates the Gs transduction pathway that leads to an internal cAMP increase upon binding to the appropriate ligand (indole here). Odorant-induced activity was detected by measuring the cAMP increase in the cytosol using an HTRF based kit (CisBio, cAMP dynamic 2 kit, cat. 62AM4PEJ).

[6] = biological target: T1, OR51E1 olfactory receptor (Homo sapiens, UniProt Q8TCB6); assay: Butyric acid olfactory receptor antagonist cell-based dose-response vs butyric acid EC80; details: butyric acid at EC80; Table 5
T1 construct: expressed in transfected cells
T1 sequence (Q8TCB6 1-318): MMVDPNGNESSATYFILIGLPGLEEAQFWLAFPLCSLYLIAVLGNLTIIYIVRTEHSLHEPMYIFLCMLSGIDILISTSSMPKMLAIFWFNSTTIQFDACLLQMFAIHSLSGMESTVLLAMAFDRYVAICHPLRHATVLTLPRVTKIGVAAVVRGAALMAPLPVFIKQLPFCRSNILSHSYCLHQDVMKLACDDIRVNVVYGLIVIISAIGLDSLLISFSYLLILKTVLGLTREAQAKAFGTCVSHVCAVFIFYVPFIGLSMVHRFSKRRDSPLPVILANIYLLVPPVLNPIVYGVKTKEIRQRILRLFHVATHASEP

Olfr742 = Olfr742 (Mus musculus, UniProt A2RTP5); assay: Indole antagonist dose-response, cAMP HTRF in HEK293T, vs indole EC80; type: cell-based; details: for Emax: HEK-293T, read-out: Olfr742 % Inhibition
Sequence of Olfr742 (A2RTP5 entry or part of it): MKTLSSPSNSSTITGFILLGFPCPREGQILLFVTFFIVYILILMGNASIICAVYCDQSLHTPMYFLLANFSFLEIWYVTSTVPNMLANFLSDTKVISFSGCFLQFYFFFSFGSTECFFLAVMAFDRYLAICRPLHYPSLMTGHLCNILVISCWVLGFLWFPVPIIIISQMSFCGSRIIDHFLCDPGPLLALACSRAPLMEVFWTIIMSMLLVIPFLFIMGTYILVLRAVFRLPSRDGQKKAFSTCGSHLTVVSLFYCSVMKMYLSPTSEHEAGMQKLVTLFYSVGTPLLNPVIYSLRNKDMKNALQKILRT
Protocol: as §1

[7] = system: 1-octen-3-ol receptors OR2W1, Olfr93, Olfr120, Olfr398; assay: Antagonists of 1-octen-3-ol receptors (Example 11); type: cell-based, mouse and human; set-up: Inhibition(%): concentration or dose not given beside the values; details: Table 19
Olfr738 = Olfr738 (Mus musculus, UniProt L7N1X7); assay: Indole antagonist dose-response, cAMP HTRF in HEK293T, vs indole EC80; type: cell-based; details: for Olfr738 % Inhibition: Table 22, first listing
Sequence of Olfr738 (L7N1X7 entry or part of it): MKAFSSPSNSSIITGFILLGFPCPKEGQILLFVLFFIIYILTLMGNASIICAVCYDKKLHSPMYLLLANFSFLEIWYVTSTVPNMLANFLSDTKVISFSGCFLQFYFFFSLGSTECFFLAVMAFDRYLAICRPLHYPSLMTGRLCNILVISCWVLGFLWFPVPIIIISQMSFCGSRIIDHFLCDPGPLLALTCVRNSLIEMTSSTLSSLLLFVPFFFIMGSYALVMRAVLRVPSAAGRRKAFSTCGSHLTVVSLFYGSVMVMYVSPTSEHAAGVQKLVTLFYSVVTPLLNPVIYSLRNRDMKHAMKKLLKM
Protocol: as §1

Olfr741 = Olfr741 (Mus musculus, UniProt L7N1Y5); assay: as above; type: cell-based; details: Table 22, first listing
Sequence of Olfr741 (L7N1Y5 entry or part of it): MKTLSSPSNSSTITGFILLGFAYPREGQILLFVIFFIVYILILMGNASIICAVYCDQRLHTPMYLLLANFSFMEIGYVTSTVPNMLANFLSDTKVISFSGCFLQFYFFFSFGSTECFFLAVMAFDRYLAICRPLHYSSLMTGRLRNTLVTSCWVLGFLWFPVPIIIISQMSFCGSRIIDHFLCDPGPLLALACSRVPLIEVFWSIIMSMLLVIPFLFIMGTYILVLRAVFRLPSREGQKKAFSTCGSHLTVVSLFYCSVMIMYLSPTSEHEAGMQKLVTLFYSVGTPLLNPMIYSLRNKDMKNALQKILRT
Protocol: as §1

[8] = Table 22, first listing, vs indole EC80
[9] = Table 22, first listing (r7-r45), vs indole EC80, read-out: Olfr740 IC50
[10] = Low Dilution Test Compound + 1-octen-3-ol (0.15%)
[11] = Medium Dilution Test Compound + 1-octen-3-ol (0.15%)
[12] = Table 22, first listing (r7-r45), vs indole EC80, read-out: Olfr742 IC50
[13] = Low Dilution Test Compound + Geonol (0.1%)
[14] = Medium Dilution Test Compound + Geonol (0.1%)

CC(C)(C)c1ccc(CCC=O)cc1 [3-(4-tert-butylphenyl)propanal]
% Inhibition [1]: 50%
IC50 ([1]; read-out: IC50): 316 µM

CC1C(=O)c2ccccc2C1(C)C (stereo not drawn) [2,3,3-trimethyl-2H-inden-1-one]
IC50 [2]: 75.6 µM
% Inhibition [2]: 128.39%

CCCCCC/C=C/C=O [nonylenic aldehyde]
% Inhibition [1]: 30%
IC50 ([1]; read-out: IC50): 151 µM

O=C1CCCCCCCCCCCCCCO1 [OXACYCLOHEXADECAN-2-ONE]
IC50 [2]: 32.1 µM
% Inhibition [2]: 111.31%

O=C1CCCCCCCCCCCCCCO1 [oxacyclohexadecan-2-one]
% Mushroom/Earthy/Fungal Odor [3]: 13.90%
% Earthy/Moss Odor [4]: 18.70%
IC50 [5]: 291 µM
Inhibition(%) [5]: 34%

CC(CC=O)CCc1ccccc1 (stereo not drawn) [3-methyl-5-phenylpentanal]
Emax (Olfr740; [8]): 110%
IC50 (Olfr740; [9]): 16.1 µM

CC1CCCCCCCCCCCCC(=O)C1 (racemic) [(+−)-3-methylcyclopentadecanone]
IC50 [6]: 159 µM
% Mushroom/Earthy/Fungal Odor [3]: 11.60%
IC50 [2]: 44 µM
% Inhibition [2]: 113.50%

1-(4,8-dimethyl-12-methylidenecyclododeca-4,8-dien-1-yl)ethanone; 1-(2,6,10-trimethylcyclododeca-1,5,9-trien-1-yl)ethanone; 1-(2,6,10-trimethylcyclododeca-2,5,9-trien-1-yl)ethanone
IC50 [6]: 101 µM
% Inhibition [1]: 20%
IC50 ([1]; read-out: IC50): 301 µM
% Mushroom/Earthy/Fungal Odor Remaining [3, 10]: 88.90%
% Mushroom/Earthy/Fungal Odor Remaining [3, 11]: 68.50%
% Mushroom/Earthy/Fungal Odor [3]: 26.70%
IC50 [2]: 82.4 µM
% Inhibition [2]: 113.23%

CC1C(=O)c2ccccc2C1(C)C (stereo not drawn) [2,3,3-trimethyl-2~{H}-inden-1-one]
% Mushroom/Earthy/Fungal Odor Remaining [3, 10]: 94.40%
% Mushroom/Earthy/Fungal Odor Remaining [3, 11]: 57.90%
% Mushroom/Earthy/Fungal Odor [3]: 16.50%

CC(C)=CCC[C@@H](C)CC#N [(−)-(R)-3,7-dimethyl-6-octenenitrile]
% Inhibition [1]: 10%
IC50 ([1]; read-out: IC50): 300 µM

O=C1CCCCCCCCCCC(=O)OCCO1 [1,4-dioxacyclohexadecane-5,16-dione]
% Mushroom/Earthy/Fungal Odor [3]: 14.90%
IC50 [2]: 24.2 µM
% Inhibition [2]: 116.54%
IC50 [5]: 136 µM
Inhibition(%) [5]: 33%

Cc1ccc(CC(C)C=O)cc1 (stereo not drawn) [2-methyl-3-(4-methylphenyl) propanal]
Emax (Olfr742; [8]): 37.2%
IC50 (Olfr742; [12]): 88.2 µM

CC(=CC=O)CCC(C)=C(C)C [3,6,7-trimethylocta-2,6-dienal]
% Mushroom/Earthy/Fungal Odor [3]: 16.40%
% Earthy/Moss Odor [4]: 26.90%

CC(CC=O)c1ccccc1 (stereo not drawn) [3-phenylbutanal]
Emax (Olfr742; [8]): 113%
IC50 (Olfr742; [12]): 44.8 µM

CCC=CCC=CC=CC(=O)OCC [ethyl deca-2,4,7-trienoate]
% Mushroom/Earthy/Fungal Odor [3]: 56.50%
% Earthy/Moss Odor [4]: 62.20%

C=C1CC[C@H]2O[C@]2(C)CC[C@@H]2[C@@H]1CC2(C)C
IC50 [6]: 97 µM
IC50 [2]: 25.1 µM
% Inhibition [2]: 123.63%

O=C1CCCCCCCCCCC1 [Clyclododecanone, cyclododecanone]
IC50 [2]: 8.79 µM
% Inhibition [2]: 118.47%

Cc1ccc(C(C)C)cc1O [Compound 2-methyl-5-propan-2-ylphenol, 2-methyl-5-propan-2-ylphenol]
IC50 [1]: 215 µM
% Earthy/Moss Odor [4]: 40.10%

CC1CC(C)(c2ccccc2)CO1 (stereo not drawn) [2,4-dimethyl-4-phenyloxolane]
Emax (Olfr740; [8]): 100%
IC50 (Olfr740; [9]): 51.2 µM

CC(=O)CCC1=C(C)CCCC1(C)C [4-(2,6,6-trimethylcyclohexen-1-yl)butan-2-one]
IC50 [7]: 149 µM
Inhibition(%) [7]: 40%
% Earthy/Moss Odor [4]: 30.30%
IC50 [5]: 118 µM
Inhibition(%) [5]: 36%

O=C1CCC=CCCCCCCCCCC1 [Cyclopentadec-4-en-1-one]
IC50 [2]: 156 µM
% Inhibition [2]: 90.98%

CCCCCOC(=O)Cc1ccccc1 [Amyl Phenylacetate]
IC50 (Olfr738): 82.7 µM
Olfr738 % Inhibition (Olfr738; vs indole EC80): 18.44%
IC50 (Olfr740): 40.4 µM
Emax (Olfr740): 61%
IC50 (Olfr742): 141 µM
Emax (Olfr742): 18%

3-acetyloxynonyl acetate; (3-pentyloxan-4-yl) acetate
% Earthy/Moss Odor Remaining [4, 13]: 81.10%
% Earthy/Moss Odor Remaining [4, 14]: 62.50%
% Earthy/Moss Odor [4]: 26.20%
IC50 [5]: 295 µM
Inhibition(%) [5]: 20%

CC(=O)OC(C)CC(C)(C)c1ccccc1 (stereo not drawn) [(4-methyl-4-phenylpentan-2-yl) acetate]
IC50 [6]: 59.2 µM
% Mushroom/Earthy/Fungal Odor [3]: 52.70%
IC50 [7]: 62 µM
Inhibition(%) [7]: 119%
IC50 [2]: 61.7 µM
% Inhibition [2]: 98.90%
IC50 [5]: 627 µM
Inhibition(%) [5]: 84%

C=C(C)[C@@H]1CCC2=CC(=O)C[C@@H](C)[C@]2(C)C1 [(4R,4aS,6R)-4,4a-dimethyl-6-prop-1-en-2-yl-3,4,5,6,7,8-hexahydronaphthalen-2-one]
% Inhibition [1]: 50%
IC50 ([1]; read-out: IC50): 486 µM
IC50 [7]: 36.5 µM
Inhibition(%) [7]: 39%
% Earthy/Moss Odor [4]: 70.60%

CC1(C)C2C[C@H]3CCC(=O)C=C3[C@@H]1C2 (single isomer, unassigned; (+))
IC50 [2]: 194 µM
% Inhibition [2]: 128.51%

CC(C)=CCCC(C)=CCCc1ccncc1 [4-(4,8-dimethylnona-3,7-dienyl)pyridine]
% Mushroom/Earthy/Fungal Odor [3]: 44.40%
IC50 [2]: 134 µM
% Inhibition [2]: 111.87%

C[C@@H](CC=O)CCCC(C)(C)O [(3~{R})-7-hydroxy-3,7-dimethyloctanal]
% Mushroom/Earthy/Fungal Odor Remaining [3, 10]: 70.00%
% Mushroom/Earthy/Fungal Odor Remaining [3, 11]: 56.50%
% Mushroom/Earthy/Fungal Odor [3]: 20.70%
% Earthy/Moss Odor Remaining [4, 13]: 68.20%
% Earthy/Moss Odor Remaining [4, 14]: 57.20%
% Earthy/Moss Odor [4]: 30.30%

CC1C(C)(C)C2=C(C(=O)CCC2)C1(C)C (stereo not drawn) [1,1,2,3,3-pentamethyl-2,5,6,7-tetrahydroinden-4-one]
% Mushroom/Earthy/Fungal Odor [3]: 25.90%
IC50 (Olfr738; Table 22, first listing (r7-r45), vs indole EC80, read-out: Olfr738 IC50): 21.3 µM
Olfr738 % Inhibition (Olfr738; vs indole EC80): 61.33%
IC50 (Olfr741): 2560 µM
Olfr741 % Inhibition (Olfr741): 140.61%
Emax (Olfr740; [8]): 217%
IC50 (Olfr740; [9]): 12 µM
Emax (Olfr742; [8]): 120%
IC50 (Olfr742; [12]): 249 µM
IC50 [2]: 51.2 µM
% Inhibition [2]: 118.44%
IC50 [5]: 268 µM
Inhibition(%) [5]: 71%

CC(C)Cc1ccc2ccccc2n1 [isobutylquinoline, 2-ISOBUTYLQUINOLINE]
% Inhibition [1]: 45%
% Mushroom/Earthy/Fungal Odor [3]: 27.30%
% Earthy/Moss Odor [4]: 37.80%
IC50 [2]: > 600 µM
% Inhibition [2]: 30.14%

CCCCCO [Pentanol, 1-, pentanol]
IC50 [2]: 28.3 µM
% Inhibition [2]: 94.31%

O=C1CCCCCCC/C=C/CCCCCCC1 [(9<I>E</I>)-cycloheptadec-9-en-1-one]
IC50 [2]: 210 µM
% Inhibition [2]: 97.22%
